Experimental data from US20160264565A1, “CRYSTALLINE DASATINIB PROCESS” (SHILPA MEDICARE LIMITED, priority 2013, published 2016).

How the values were obtained:
[1] = Stability of the crystal form on drying; assay type: physicochemical; settings: drying for more than 20 hrs at 60-65° C.
Experimental: (§1) This stable form thus, offers various advantages in terms of storage, shelf life and favorable impurity profile.
(§2) The new stable crystalline Form-SDI is characterized by 3-methylbutan-1-ol content in range of 10-16% w/w. […] 3-methylbutan-1-ol content even on drying for more than 20 hrs at 60-65° C. This offers advantages for large scale manufacturing in terms of handling, storage, shelf life and favorable impurity profile.

[2] = Stability on handling and storage; assay type: physicochemical; settings: handle and store for longer time
Experimental: as §1, §2

Cc1nc(Nc2ncc(C(=O)Nc3c(C)cccc3Cl)s2)cc(N2CCN(CCO)CC2)n1 [Crystalline Form-SDI of Dasatinib, N-(2-chloro-6-methylphenyl)-2-[[6-[4-(2-hydroxyethyl)-1-piperazinyl]-2-methyl-4-pyrimidinyl]amino]-5-thiazolecarboxamide]
stoichiometry (3-methylbutan-1-ol content) on drying [1]: retains its stoichiometry
change in morphology and physicochemical characteristics on handling and storage for longer time [2]: without any significant or measurable change
change in morphology and physicochemical characteristics on handling and storage for longer time ([2]; listed as Form-SDI): without any measurable change
